Reference: patent US7569608B2, “Pentanoic acid derivatives” (Ono Pharmaceutical Co., Ltd., priority 1993, dated 2009)

Experiments:
[1] = tested on: GABAA receptor; experiment: Experiment 2: regeneration of GABAA receptor responses in reactive astrocytes; assay type: cell-based, rat; details: 14 DIV after serial passages, control 8 ± 6
Protocol: (§1) Preparation of astrocyte cultures: After removing the meninges, isolated cerebrum of neonatal rats (age: day 1) were placed on frosted glass-slides and minced. The sample was then digested with trypsin (0.25%) and DNase 1 (0.02%) and suspended in 10% FCS-DMEM before centrifugation. After resuspending in 10% FCS-DMEM, the suspension was dispersed in dishes and cultured at 37° C. under 5% CO2 atmosphere. Non-adherent cells were removed from the dishes after agitation/washing on post-culture 24 hours. Note that the adherent cell population was composed of more than 95% of GFAP-positive cells.
(§2) GFAP contents and GABAA receptor responses: The improvement effects on astrocyte functions were evaluated from the following indices: inhibition derived from the increase in GFAP content and inhibition in the disappearance of GABAA receptor responses. Thus, sodium valproate (Sigma Chem. Co., U.S.A.) was added on 1 DIV followed by whole-cell mode voltage-clamp method on 7 DIV-to measure the GABA (3×10^−5 M)-induced Cl^− current. The Cl^− current was taken as an index for the GABA response. Furthermore, GFAP contents were determined by the ELISA method on 11 DIV.
Astrocytes were prepared and cultured in a manner similar to Experiment 1. On 14 DIV, reactive astrocytes were subjected to a serial passage (10^5 cells/dish). The thus adherent reactive astrocytes were washed, and transferred to culture media containing the present effectively developed compound(s) or invention. On 14 DIV after serial passages, GABAA receptor responses were tested according to procedures designated in Experiment 1.

[2] = tested on: experimental brain ischemia model; experiment: Experiment 4: experimental brain ischemia, conditional avoidance experiment; assay type: in vivo, rat; details: 300 mg/kg i.p. once daily for 4 days after deligation; 10 trials within 2 days; ischemic reference 2.8±0.8, normal 6.1±0.7, sham 4.8±0.8
Protocol: Establishing the experimental brain ischemia model: Vertebral arteries of pentobarbital-anesthetized rats were bilaterally coagulated, and a period of 7 days was allowed for recovery. The previously surgically exposed bilateral common carotid arteries of ischemic rats were mechanically ligated for 20 min. Immediately after deligation, the rats were once daily injected i.p. with sodium valproate (300 mg/kg) for 4 consecutive days. On deligation day 5˜6, mobility aspects in the conditional avoidance experiment were monitored.
Mobility aspects of the conditional avoidance experiment: The step-up model of the dark/light box was used. Animals placed in the dark section of the grid-floored box with the connecting door closed were allowed to accustomed to the environment for 1 minute. The door was then opened for 10 seconds. Rats that stepped up to the lighted section via the opened door were considered positive in the conditional avoidance test. Animals categorized as negative in the test were placed in the dark section with the door closed for 10 seconds prior to subjecting them to electric foot shock at 2 mA for 50 seconds. […] The above procedure was repeated 5 trials per day at 30-minutes intervals. A total of 10 trials within 2 days were attempted.

[3] = tested on: astrocytes; experiment: Experiment 1: GFAP contents of cultured astrocytes (ELISA); assay type: cell-based, rat; details: added on 1 DIV, ELISA on 11 DIV, ratio of the control group (control 100.0)
Protocol: as §1, §2
The GFAP contents were expressed as a ratio of the control group.

[4] = tested on: neurons; experiment: Experiment 3: suppression of cell death in neurons-astrocytes co-culture; assay type: cell-based, rat; details: 3 mM, neurons co-cultured with astrocytes
Protocol: Astrocytes, prepared in a manner similar to that of Experiment 1, were cultured for 14 days. Previously prepared neurons (3×10^4 cells/well), isolated from cerebrum of 19-day old fetus rats, were added to the cultured astrocytes (3×10^5 cells/well) and allowed to grow. During the culture process, survival rates and neuronal dendrite extension/ramification of neurons were observed. Note that, sodium valproate (3 mM) and astrocytes were initially added to the neurons concomitantly, and freshly prepared similar culture media containing the invented compound (3 mM) were subsequently added at 3˜4-day intervals.

[5] = tested on: GABAA receptor; experiment: Experiment 1: GABAA receptor responses of cultured astrocytes (GABA-induced Cl- current, whole-cell voltage-clamp); assay type: cell-based, rat; details: added on 1 DIV, measured on 7 DIV, GABA 3×10^−5 M-induced Cl− current, control 90 ± 43
Protocol: as §1, §2

| SMILES | GABAA receptor responses (means ± S.E.) ([1]; 0.3 mM) [pA] | GABAA receptor responses (means ± S.E.) ([1]; 1.0 mM) [pA] | GABAA receptor responses (means ± S.E.) ([1]; 3.0 mM) [pA] | further results |
| --- | --- | --- | --- | --- |
| CCCC(CCC(C)C)C(=O)[O-].[Na+] (centres unmarked) [Example 7(16)] | 105 ± 65 | 417 ± 140 | – | – |
| CCCCCC(CCC)C(=O)[O-].[Na+] (centres unmarked) [Example 7(30)] | 233 ± 90 | 675 ± 201 | – | – |
| CCCC(CCCCF)C(=O)[O-].[Na+] (centres unmarked) [Example 2(6)] | 184.0 ± 118.1 | – | 528.0 ± 160.2 | – |
| CCCC(CCCCc1ccccc1)C(=O)[O-].[Na+] (centres unmarked) [Example 7(8)] | – | 59.0 ± 20.6 | – | – |
| CCCC[C@@H](CC)C(=O)O (racemic) [Example 11] | 35 ± 15 | 190 ± 134 | 281 ± 174 | – |
| CCCC(CCCCCC(F)(F)F)C(=O)[O-].[Na+] (centres unmarked) [Example 2(9)] | 236.4 ± 85.5 | – | – | – |
| CCCC(CCCC(C)C)C(=O)[O-].[Na+] (centres unmarked) [Example 7(18)] | – | 658.6 ± 440.7 | – | – |
| CCCCCOC(CCC)C(=O)[O-].[Na+] (centres unmarked) [Example 7(37)] | 139 ± 52 | – | 595 ± 190 | – |
| CCCC(CCCCCF)C(=O)[O-].[Na+] (centres unmarked) [Example 7] | 213.1 ± 150.1 | 661.7 ± 306.3 | – | – |
| CCCC(CCCCOC)C(=O)[O-].[Na+] (centres unmarked) [Example 7(14)] | – | – | 285.7 ± 103.6 | – |
| CCCC(CCC(F)(F)F)C(=O)[O-].[Na+] (centres unmarked) [Example 2(12)] | – | 672 ± 242 | 1109 ± 227 | – |
| CCCCC(CCC)C(=O)[O-].[Na+] (centres unmarked) [Example 7(31)] | 51 ± 28 | 565 ± 278 | 590 ± 180 | – |
| C=CCC(CCC)C(=O)[O-].[Na+] (centres unmarked) [Example 7(28)] | – | – | 122 ± 44 | – |
| CCCC(CCCCCCF)C(=O)[O-].[Na+] (centres unmarked) [Example 7(1)] | 260.0 ± 47.3 | – | – | – |
| CCCC(CCCCC(C)C)C(=O)[O-].[Na+] (centres unmarked) [Example 7(17)] | 259.0 ± 83.7 | – | – | – |
| CCCC(CCCOc1ccccc1)C(=O)[O-].[Na+] (centres unmarked) [Example 7(9)] | 512.1 ± 233.1 | – | 226.3 ± 60.5 | – |
| CCCC(CCCCC(F)F)C(=O)[O-].[Na+] (centres unmarked) [Example 2] | 193 ± 103 | 628 ± 227 | – | – |
| CCCCCCC(CCC)C(=O)[O-].[Na+] (centres unmarked) [Example 7(33)] | 1260 ± 521 | – | – | GABAA receptor responses (means ± S.E.) ([1]; 0.03 mM): 40 ± 23 pA; GABAA receptor responses (means ± S.E.) ([1]; 0.1 mM): 237 ± 69 pA |
| CCCC(CCC1CCCCC1)C(=O)[O-].[Na+] (centres unmarked) [Example 7(4)] | 163.0 ± 60.4 | – | – | – |
| CCCC(CCCF)C(=O)[O-].[Na+] (centres unmarked) [Example 2(5)] | – | – | 326 ± 148 | – |
| CCCC(CCCC(F)(F)F)C(=O)[O-].[Na+] (centres unmarked) [Example 2(8)] | – | 470.6 ± 124.9 | 808.6 ± 325.4 | – |
| CCCC(CCCCCC(F)F)C(=O)[O-].[Na+] (centres unmarked) [Example 2(2)] | 527 ± 201 | – | – | GABAA receptor responses (means ± S.E.) ([1]; 0.1 mM): 114 ± 81 pA |
| CCCC(CCCCCCCF)C(=O)[O-].[Na+] (centres unmarked) [Example 7(2)] | 730.0 ± 226.4 | – | – | – |
| CCCC(CCC)C(=O)[O-].[Na+] [VPA, sodium valproate] | 37 ± 26 | 193 ± 141 | 1263 ± 303 | conditional avoidance response, count (frequencies) [2]: 5.3±0.8; Ratio of increase in GFAP contents ([3]; 0.3 mM): 30.6%; Ratio of increase in GFAP contents ([3]; 1.0 mM): 36.3%; Ratio of increase in GFAP contents ([3]; 3.0 mM): 44.3%; Survival rates (on 22 days) ([4]; control <10%): 60-70%^; dendrite generation in the neurons ([4]; not observed in control): detected; GABAA receptor responses (means ± S.E.) ([5]; 0.3 mM): 254 ± 106 pA; GABAA receptor responses (means ± S.E.) ([5]; 1.0 mM): 432 ± 98 pA; GABAA receptor responses (means ± S.E.) ([5]; 3.0 mM): 1301 ± 156 pA |
| CCCC(CCCCC(F)(F)F)C(=O)[O-].[Na+] (centres unmarked) [Example 2(10)] | 800.0 ± 415.6 | – | – | – |
| CCCCCCCCC(CCC)C(=O)[O-].[Na+] (centres unmarked) [Example 7(32)] | – | – | – | GABAA receptor responses (means ± S.E.) ([1]; 0.1 mM): 48 ± 20 pA |
| CCCC(Cl)(CCC)C(=O)OC [Example 9] | – | – | 467 ± 187 | – |
| CC/C=C(\CCC)C(=O)[O-].[Na+] [Example 13] | – | – | 171 ± 55 | – |
| CCCCCCCC(CCC)C(=O)O (centres unmarked) [Example 2-PNA, 2-propylnonanic acid] | 380 ± 124 | – | – | GABAA receptor responses (means ± S.E.) ([1]; 0.03 mM): 85 ± 41 pA; GABAA receptor responses (means ± S.E.) ([1]; 0.1 mM): 107 ± 50 pA |
| CCCC(C(=O)[O-])C1CCCCC1.[Na+] (centres unmarked) [Example 7(26)] | – | – | 344.7 ± 342.5 | – |
